Like-named read-outs stand apart in the source and are kept apart here.
How the values were obtained:
[1] = Plasma free fraction (fu) and unbound Cmax (Cmax,u); format: in vitro ADME, human; conditions: unbound plasma Cmax
Experimental: The prediction of DILI severity was evaluated further using the 3D combined HCI assays using plasma-free fraction. The majority of fu values were obtained from literature, when unavailable in-house prediction was utilised. Unbound plasma Cmax concentrations (Cmax,u) were derived by multiplying total plasma Cmax with the corresponding free fraction (fu) for each compound.

[2] = system: HepG2; parameters: method as in Albrecht 2019; conditions: In vitro Assay; ref Albrecht 2019; cited from earlier work
[3] = cited from earlier work
[4] = system: primary human hepatocytes, NIH3T3 fibroblasts, BSEP, CYP3A4; conditions: cited from earlier work
[5] = system: HepG2 cells; conditions: cited from earlier work
[6] = system: HepG2 cells; conditions: cited from earlier work; remark: listed apart in the source
[7] = system: human hepatocytes; conditions: cited from earlier work
[8] = system: THLE or HepG2 cells, isolated mitochondria, BSEP; conditions: cited from earlier work
[9] = system: PHH; conditions: cited from earlier work
[10] = system: hLiMTs; conditions: cited from earlier work
[11] = system: PHH spheroids; conditions: In vitro Assay; ref Vorrink 2018; cited from earlier work
[12] = system: HepG2 C3A spheroid, BSEP, Glu/Gal in HepG2 cells, bioactivation; conditions: cited from earlier work
[13] = read-out: Human plasma Cmax; total plasma Cmax.tot, median of 9 literature references; cited from earlier work
[14] = plasma free fraction; cited from earlier work
[15] = cited from earlier work; remark: listed apart in the source
[16] = system: PHH; conditions: In vitro Assay; ref Albrecht 2019; cited from earlier work
[17] = system: THLE-Null and THLE-3A4 cells; conditions: In vitro Assay; ref Gustafsson 2014; cited from earlier work
[18] = system: HepG2 cells, primary human hepatocytes; conditions: In vitro Assay; ref Garside 2014; cited from earlier work
[19] = system: isolated mouse liver mitochondria; conditions: In vitro Assay; ref Porceddu 2012; cited from earlier work
[20] = system: rBsep; conditions: In vitro Assay; ref Dawson 2012; cited from earlier work
[21] = system: hLiMTs; experiment: Combined HCI (HCS) and cellular ATP 3D assay in hLiMTs; conditions: for AC50 / minimal effective concentration: Homo sapiens
[22] = system: HepaRG spheroids; experiment: Combined HCI (HCS) and cellular ATP 3D assay in HepaRG spheroids; conditions: for AC50 / minimal effective concentration: Homo sapiens
[23] = In vitro Assay, ref Schadt 2015
[24] = In vitro Assay, ref Persson 2013
[25] = Modeled in vitro assays (cytotoxicity, mitochondrial dysfunction, BSEP), ref Aleo et al. 2019
[26] = In vitro Assay, ref Proctor 2017
[27] = Microtissue model structural based (HCI), combined HCS and ATP, MEC < 25 × Cmax.tot cut-off

For Cc1c(C)c2c(c(C)c1O)CCC(C)(COc1ccc(CC3SC(=O)NC3=O)cc1)O2 (stereo not drawn) [troglitazone, reference compound], the “Human plasma Cmax,u” value [1] is given as 0.064 µM, the “Cytotoxicity HepG2 48 hrs” value [2] is given as “+VE” and the “DILI severity category (Chen et al. [2016])” value ([3]; LTKB DILIrank category, ref Chen et al. 2016) is given as “Most”. For the same compound, the “DILI severity category (Chen 2016)” value ([3]; human DILI classification, LTKB DILIrank, ref Chen et al. 2016) was “Most”, the DILI severity category ([3]; human DILI severity, ref Chen et al.) was “Most” and the “DILI +VE (5-8), DILI -VE (-4)” value ([3]; ref Chen 2016) was “+VE”. The DILI severity category ([3]; ref Chen 2016) was “vMost-DILI-Concern”, the “DILI in vitro assay prediction, Schadt (2015)” value ([4]; BSEP & Metabolism based, ref Schadt et al. 2015) was “+VE” and the “Cellular toxicity (3T3 cells)” value [4, 23] was “+VE”. For the same compound, the “Combined Assay” value [4, 23] was “+VE”, the “GSH adduct HML” value [4, 23] was “+VE” and the Hepatocyte cellular toxicity [4, 23] was “+VE”. The “MitoTox 3T3” value [4, 23] was “-VE”, the “TDI CYP3A4” value [4, 23] was “+VE” and the hBSEP inhibition [4, 23] was “+VE”. The Cluser analysis [5, 24] was “+VE”, the “Structural based (HCI)” value [5, 24] was “+VE” and the “DILI in vitro assay prediction, Persson (2013)” value ([5]; Structural based (HCI), HepG2, ref Persson et al. 2013) was “+VE”. The “Structural based (HCI)” value ([6]; In vitro Assay, ref Tolosa 2012) was “+VE”, the “DILI in vitro assay prediction, Tolosa (2012)” value ([6]; Structural based (HCI), HepG2, ref Tolosa et al. 2012) was “+VE” and the “Structural based (HCI)” value ([7]; In vitro Assay, ref Xu 2008) was “+VE”. The “DILI in vitro assay prediction, Xu (2008)” value ([7]; Structural based (HCI), human hepatocytes, ref Xu et al. 2008) was “+VE”, the “Partition Hybrid HRM Score” value ([8]; In vitro Assay, ref Aleo 2019) was “+VE” and the “Ro2 Hybrid HRM Score” value ([8]; In vitro Assay, ref Aleo 2019) was “+VE”. For the same compound, the “Partition Hybrid HRM Score ≥4, Aleo (2019)” value [8, 25] was “+VE (Partition Hybrid HRM Score ≥4)”, the “Partition Hybrid HRM Score ≥8, Aleo (2019)” value [8, 25] was “+VE (Partition Hybrid HRM Score ≥8)” and the “Rule of Two hybrid HRM Score ≥3, Aleo (2019)” value [8, 25] was “+VE (Rule of Two hybrid HRM Score ≥3)”. The “Rule of Two hybrid HRM Score ≥8, Aleo (2019)” value [8, 25] was “+VE (Rule of Two hybrid HRM Score ≥8)”, the “PHH/100xCmax, Proctor (2017)” value ([9]; 2D PHH, ATP, IC50 < 100 × Cmax.tot, ref Proctor et al. 2017) was “-VE” and the “PHH/100uM, Proctor (2017)” value ([9]; 2D PHH, ATP, IC50 threshold 100 µM, ref Proctor et al. 2017) was “-VE”. The “PHH ATP <100uM” value [9, 26] was “-VE”, the “hLiMTs ATP <100uM” value [10, 26] was “+VE (IC50 threshold of 100 µM)” and the “hLiMTs/100xCmax, Proctor (2017)” value ([10]; hLiMTs, ATP, IC50 < 100 × Cmax.tot, ref Proctor et al. 2017) was “+VE (IC50 < 100 × Cmax.tot)”. The “hLiMTs/100uM, Proctor (2017)” value ([10]; hLiMTs, ATP, IC50 threshold 100 µM, ref Proctor et al. 2017) was “+VE (IC50 threshold of 100 µM)”, the “hLiMTs ATP <20 x Cmax” value [11] was “+VE (IC20 < 20 × Cmax.tot cut-off)” and the “Bayesian Machine Learning DILI prediction, Williams (2019)” value ([12]; Bayesian modeling, ref Williams et al. 2019) was “+VE”. The “Bayesian Machine Learning” value ([12]; In vitro Assay, ref Williams 2019) was “+VE”, the Cmax [13] was 6.39 µM and the fu [14] was 0.010. The “Assigned DILI category” value ([15]; Chen et al. 2016 or literature alignment, ref Chen et al. 2016) was 3, the “In vivo DILI” value ([15]; […]) was “+VE” and the “In vivo DILI” value ([15]; ref Albrecht 2019) was “+VE”. The “In vivo DILI” value ([15]; ref Aleo 2019) was “+VE”, the “In vivo DILI” value ([15]; ref Dawson 2012) was “+VE” and the “In vivo DILI” value ([15]; ref Garside 2014) was “+VE”. The “In vivo DILI” value ([15]; ref Gustafsson 2014) was “+VE”, the “In vivo DILI” value ([15]; ref Persson 2013) was “+VE” and the “In vivo DILI” value ([15]; ref Porceddu 2012) was “+VE”. The “In vivo DILI” value ([15]; ref Proctor 2017) was “+VE”, the “In vivo DILI” value ([15]; ref Schadt 2015) was “+VE” and the “In vivo DILI” value ([15]; ref Tolosa 2012) was “+VE”. The “In vivo DILI” value ([15]; ref Vorrink 2018) was “+VE”, the “In vivo DILI” value ([15]; ref Williams 2019) was “+VE” and the “In vivo DILI” value ([15]; ref Xu 2008) was “+VE”. The “Cytotoxicity PHH 48 hrs” value [16] was “+VE”, the THLE-Null [17] was “+VE” and the THLE-Null/3A4 [17] was “-VE”. The “Cluster 1-6 +VE Assay” value [18] was “+VE”, the “in vitro data EC2<=1x Cmax” value [19] was “+VE” and the “in vitro data EC20<=2uM” value [19] was “+VE”. The “Inhibition of rBsep cutoff<1& cmax u>.2” value [20] was “+VE”, the “Inhibition of rBsep cutoff<3” value [20] was “+VE” and the AC50 ([21]; read-out: ATP endpoint AC50) was 89.5 µM. The minimal effective concentration ([21]; read-out: ATP endpoint MEC) was 74 µM, the AC50 ([21]; read-out: HCS endpoint AC50) was 73.6 µM and the minimal effective concentration ([21]; read-out: HCS endpoint MEC) was 67.6 µM. For the same compound, the “DILI prediction hLiMTs (HCS-MEC)” value [21, 27] was “+VE (MEC < 25 × Cmax.tot cut-off)”, the “hLiMTs <25x Avg Cmax ATP” value ([21]; hLiMTs, ATP endpoint, cut-off <25x Avg Cmax) was “+ve” and the “hLiMTs <100x Avg Cmaxu ATP” value ([21]; hLiMTs, ATP endpoint, cut-off <100x Avg Cmaxu) was “-ve”. The “hLiMTs <25x Avg Cmax HCS” value ([21]; hLiMTs, HCS endpoints, cut-off <25x Avg Cmax) was “+ve”, the “hLiMTs <100x Avg Cmaxu HCS” value ([21]; hLiMTs, HCS endpoints, cut-off <100x Avg Cmaxu) was “-ve” and the “hLiMTs <25x Avg Cmax All” value ([21]; hLiMTs, all endpoints (ATP and HCS), cut-off <25x Avg Cmax) was “+ve”. The “hLiMTs Cmax max All” value ([21]; hLiMTs, all endpoints, Cmax max used) was “+ve”, the “hLiMTs Cmax min All” value ([21]; hLiMTs, all endpoints, Cmax min used) was “+ve” and the “hLiMTs <10 uM All” value ([21]; hLiMTs, all endpoints, cut-off <10 uM) was “-ve”. The “hLiMTs <100x Avg Cmaxu All” value ([21]; hLiMTs, all endpoints, cut-off <100x Avg Cmaxu) was “-ve”, the “HepaRG <25x Avg Cmax ATP” value ([22]; HepaRG, ATP endpoint, cut-off <25x Avg Cmax) was “+ve” and the “HepaRG <100x Avg Cmaxu ATP” value ([22]; HepaRG, ATP endpoint, cut-off <100x Avg Cmaxu) was “-ve”. For the same compound, the “HepaRG <25x Avg Cmax HCS” value ([22]; HepaRG, HCS endpoints, cut-off <25x Avg Cmax) was “+ve”, the “HepaRG <100x Avg Cmaxu HCS” value ([22]; HepaRG, HCS endpoints, cut-off <100x Avg Cmaxu) was “-ve” and the “HepaRG <25x Avg Cmax All” value ([22]; HepaRG, all endpoints (ATP and HCS), cut-off <25x Avg Cmax) was “+ve”. The “HepaRG Cmax max All” value ([22]; HepaRG, all endpoints, Cmax max used) was “+ve”, the “HepaRG Cmax min All” value ([22]; HepaRG, all endpoints, Cmax min used) was “+ve” and the “HepaRG <10 uM All” value ([22]; HepaRG, all endpoints, cut-off <10 uM) was “-ve”. The “HepaRG <100x Avg Cmaxu All” value ([22]; HepaRG, all endpoints, cut-off <100x Avg Cmaxu) was “-ve”, the AC50 ([22]; HepaRG, read-out: ATP endpoint AC50) was 28.8 µM and the minimal effective concentration ([22]; HepaRG, read-out: ATP endpoint MEC) was 25 µM. For the same compound, the AC50 ([22]; HepaRG, read-out: HCS endpoint AC50) was 33 µM, the minimal effective concentration ([22]; HepaRG, read-out: HCS endpoint MEC) was 22 µM and the “DILI prediction HepaRG spheroids (HCS-MEC)” value [22, 27] was “+VE (MEC < 25 × Cmax.tot cut-off)”.

Source: publication PMC7395068, “The evolution of strategies to minimise the risk of human drug-induced liver injury (DILI) in drug discovery and development” (Archives of Toxicology, 2020)
